Test results published in patent US20220087990A1, “APPLICATION OF RIFAMYCIN-QUINOLIZIDONE CONJUGATE MOLECULE AND PHARMACEUTICALLY ACCEPTABLE SALT THEREOF” (priority 2019, published 2022).
In brackets after ≈: the same amount, converted by molar mass. Like-named read-outs stand apart in the source and are kept apart here.

Key:
Type in all cases: cell-based
[1] = tested on: Staphylococcus aureus ATCC 29213; assay: MIC measured by fluid broth microdilution method (quality control); details: ATCC29213
[2] = tested on: Staphylococcus aureus MMX 3265, 3270, 3278, and 6312; details: for Cell counts (mean): 1 used if no colonies
Protocol: Each test agent stock solution was prepared at 100× the final desired test concentration for the spontaneous mutation frequency assay agar plates.
The drug/agar mixture was dispensed into sterile 150×15 mm plates (BD Falcon) to a volume of 50 mL in each plate. The target inoculum for each spontaneous mutation plate was at least 10^9 CFU. Plates were allowed to solidify at room temperature.
The inocula for the spontaneous mutation frequency assay were prepared by using sterile cotton swabs to harvest colonies from freshly grown isolates and preparing a dense cell suspension (approximately 1.70 on the turbidity meter) in 6 mL of CAMHB. The viable count of this suspension was determined by plating serial ten-fold dilutions onto MHA and taking the average of duplicate counts. For the spontaneous mutation assay, 0.25 mL of inoculum was spread onto the surface of duplicate 150×15 mm plates for each drug concentration tested, allowed to dry, and then the plates were inverted and incubated at 35° C. for 48 hr prior to counting viable colonies. The spontaneous mutation frequency was calculated using the following equation:
Spontaneous mutation frequency=average number of colonies on selected plates/total number of cells incubated onto each plate
If there were no colonies on the antibiotic selection plates, the spontaneous mutation frequency was reported as less than or equal to the mutation frequency that would have resulted from the presence of one colony (e.g. 1/total number of cells inoculated onto the plate).

[3] = tested on: methicillin-resistant Staphylococcus aureus (MRSA) isolates; assay: MIC measured by agar dilution method (CLSI); details: Staphylococcus aureus, MRSA, agar dilution
Protocol: (§1) Spontaneous mutation and minimal inhibit concentration (MIC) tested by agar dilution method, the above compounds are respectively prepared into a stock solution (100X) with a concentration 100 times the highest final concentration in corresponding solvents and used on the same day. Before use, I is further diluted with DMSO; and oxacillin, rifampicin and levofloxacin are further diluted with water.
(§2) Bacterial isolates: Staphylococcus aureus isolates are retrieved from the −80° C. storage room of Micromyx Culture Collection, thawed, plated onto Tryptic Soy Agar+5% sheep blood (Remel; Lenexa, Kans.), and then incubated aerobically at 35° C. overnight. S. aureus ATCC 29213 (MRSA; MMX 0100) was included during testing only for the purpose of quality control. Test Media: The isolates were tested in both the agar dilution MIC assay and the spontaneous mutation assay using Mueller-Hinton Agar (MHA; BD/BBL; Lot No. 6229829 & 4216798). Inocula of each isolate were suspended in cation-adjusted Mueller-Hinton Broth (CAMHB) (BD/BBL; Lot Nos. 5257869 & 6258541). Sodium chloride (Sigma-Aldrich; Lot No. SLBL0434V) was added to CAMHB at a final concentration of 2% when testing oxacillin. Dilutions of bacterial cell suspensions for the purpose of performing colony counts were also made in CAMHB.
(§3) MIC measured by agar dilution method: according to the recommendation from the Clinical and Laboratory Standards Institute (CLSI), the MIC value is measured by the agar dilution method. […] Each test agent was combined with molten MHA agar (50-55° C.) at a ratio of 0.2 mL of 100× test agent to 19.8 mL agar in a sterile tube, mixed gently, and then poured into a sterile petri plate (BD Falcon). Plates were allowed to solidify at room temperature. A 0.5 McFarland standard bacterial suspension was prepared, diluted 1:10 in CAMHB, and transferred to the wells of a stainless steel replicator block before stamping onto plates containing drug, resulting in 10^4 CFU/spot. After allowing the inoculum to dry on the surface of the agar, the plates were inverted, incubated aerobically at 35° C. for 20-24 hr, and inspected for growth.

[4] = tested on: Staphylococcus aureus ATCC 29213; assay: MIC measured by agar dilution method, quality control strain; details: strain 100, MSSA QC strain
Protocol: as §1, §2, §3
In parallel experiments, a standard bacterium suspension with a […] turbidity of 0.5 is prepared as a standard inoculum for agar dilution analysis (10^4 CFU/point). […] In this step, the broths and drugs used in the spontaneous mutation analysis are used to confirm that the concentration of the drug stock solution can inhibit the growth of the standard inoculum. The quality of the levofloxacin stock solution is controlled by a standard inoculum and levofloxacin of 8-0.008 μg/mL, and separate agar dilution analysis is performed. […]

[5] = isolate 3265 LEV^R RIF^S, drug 0.5 μg/mL in plates (combination 0.5 each), inoculation 5.40E+09 CFU
[6] = isolate 3265 LEV^R RIF^S, drug 2 μg/mL in plates (combination 2 each), inoculation 5.40E+09 CFU
[7] = isolate 3265 LEV^R RIF^S, drug 8 μg/mL in plates (combination 8 each), inoculation 5.40E+09 CFU
[8] = isolate 3270 LEV^R RIF^S, drug 0.5 μg/mL in plates (combination 0.5 each), inoculation 5.30E+09 CFU
[9] = isolate 3270 LEV^R RIF^S, drug 2 μg/mL in plates (combination 2 each), inoculation 5.30E+09 CFU
[10] = isolate 3270 LEV^R RIF^S, drug 8 μg/mL in plates (combination 8 each), inoculation 5.30E+09 CFU
[11] = isolate 3278 LEV^S RIF^S, drug 0.5 μg/mL in plates (combination 0.5 each), inoculation 3.80E+09 CFU
[12] = isolate 3278 LEV^S RIF^S, drug 2 μg/mL in plates (combination 2 each), inoculation 3.80E+09 CFU
[13] = isolate 3278 LEV^S RIF^S, drug 8 μg/mL in plates (combination 8 each), inoculation 3.80E+09 CFU
[14] = isolate 6312 LEV^R RIF^S, drug 0.5 μg/mL in plates (combination 0.5 each), inoculation 3.90E+09 CFU
[15] = isolate 6312 LEV^R RIF^S, drug 2 μg/mL in plates (combination 2 each), inoculation 3.90E+09 CFU
[16] = isolate 6312 LEV^R RIF^S, drug 8 μg/mL in plates (combination 8 each), inoculation 3.90E+09 CFU

SMILES: CO[C@H]1/C=C/O[C@@]2(C)Oc3c(C)c(O)c4c(O)c(c(/C=N/N5CCN(C)CC5)c(O)c4c3C2=O)NC(=O)/C(C)=C\C=C\[C@H](C)[C@H](O)[C@@H](C)[C@@H](O)[C@@H](C)[C@H](OC(C)=O)[C@@H]1C [Rifampicin]
- MIC [1]: 0.008 µg/mL (≈ 0.00972 µM)
- Cell counts (mean) ([2]; isolate 3265, drug 0.5 μg/mL): 55
- Cell counts (mean) ([2]; isolate 3265, drug 2 μg/mL): 29
- Cell counts (mean) ([2]; isolate 3265, drug 8 μg/mL): 36
- Cell counts plate A [2, 5]: 52
- Cell counts plate B [2, 5]: 57
- Mutation frequency [2, 5]: 1.01E−08
- Cell counts plate A [2, 6]: 27
- Cell counts plate B [2, 6]: 30
- Mutation frequency [2, 6]: 5.28E−09
- Cell counts plate A [2, 7]: 43
- Cell counts plate B [2, 7]: 29
- Mutation frequency [2, 7]: 6.67E−09
- Cell counts (mean) ([2]; isolate 3270, drug 0.5 μg/mL): 83
- Cell counts (mean) ([2]; isolate 3270, drug 2 μg/mL): 49
- Cell counts (mean) ([2]; isolate 3270, drug 8 μg/mL): 43
- Cell counts plate A [2, 8]: 93
- Cell counts plate B [2, 8]: 73
- Mutation frequency [2, 8]: 1.57E−08
- Cell counts plate A [2, 9]: 44
- Cell counts plate B [2, 9]: 53
- Mutation frequency [2, 9]: 9.15E−09
- Cell counts plate A [2, 10]: 43
- Cell counts plate B [2, 10]: 42
- Mutation frequency [2, 10]: 8.02E−09
- Cell counts (mean) ([2]; isolate 3278, drug 0.5 μg/mL): 47
- Cell counts (mean) ([2]; isolate 3278, drug 2 μg/mL): 29
- Cell counts (mean) ([2]; isolate 3278, drug 8 μg/mL): 34
- Cell counts plate A [2, 11]: 49
- Cell counts plate B [2, 11]: 44
- Mutation frequency [2, 11]: 1.22E−08
- Cell counts plate A [2, 12]: 20
- Cell counts plate B [2, 12]: 37
- Mutation frequency [2, 12]: 7.50E−09
- Cell counts plate A [2, 13]: 34
- Cell counts plate B [2, 13]: 33
- Mutation frequency [2, 13]: 8.82E−09
- Cell counts (mean) ([2]; isolate 6312, drug 0.5 μg/mL): 32
- Cell counts (mean) ([2]; isolate 6312, drug 2 μg/mL): 29
- Cell counts (mean) ([2]; isolate 6312, drug 8 μg/mL): 34
- Cell counts plate A [2, 14]: 34
- Cell counts plate B [2, 14]: 29
- Mutation frequency [2, 14]: 8.08E−09
- Cell counts plate A [2, 15]: 36
- Cell counts plate B [2, 15]: 22
- Mutation frequency [2, 15]: 7.44E−09
- Cell counts plate A [2, 16]: 38
- Cell counts plate B [2, 16]: 29
- Mutation frequency [2, 16]: 8.59E−09
- MIC ([3]; strain 3085, LEV^S RIF^S): 0.015 µg/mL (≈ 0.0182 µM)
- MIC ([3]; strain 3090, LEV^R RIF^S): 0.008 µg/mL (≈ 0.00972 µM)
- MIC ([3]; strain 3094, LEV^R RIF^S): 0.015 µg/mL (≈ 0.0182 µM)
- MIC ([3]; strain 3098, LEV^S RIF^S): 0.015 µg/mL (≈ 0.0182 µM)
- MIC ([3]; strain 3265, LEV^R RIF^S): 0.008 µg/mL (≈ 0.00972 µM)
- MIC ([3]; strain 3266, LEVR RIFS): 0.008 µg/mL (≈ 0.00972 µM)
- MIC ([3]; strain 3270, LEV^R RIF^S): 0.015 µg/mL (≈ 0.0182 µM)
- MIC ([3]; strain 3271, LEV^R RIF^S): 0.015 µg/mL (≈ 0.0182 µM)
- MIC ([3]; strain 3277, LEV^S RIF^S): 0.015 µg/mL (≈ 0.0182 µM)
- MIC ([3]; strain 3278, LEV^S RIF^S): 0.015 µg/mL (≈ 0.0182 µM)
- MIC ([3]; strain 6312, LEV^R RIF^S): 0.015 µg/mL (≈ 0.0182 µM)
- MIC ([3]; strain 6313, LEV^R RIF^S): 0.015 µg/mL (≈ 0.0182 µM)
- MIC ([3]; strain 6315, LEV^R RIF^S): 0.015 µg/mL (≈ 0.0182 µM)
- MIC ([3]; strain 6498, LEV^R RIF^S): 0.015 µg/mL (≈ 0.0182 µM)
- MIC ([3]; strain 6501, LEV^R RIF^S): 0.015 µg/mL (≈ 0.0182 µM)
- MIC ([3]; strain 6505, LEV^R RIF^S): 0.015 µg/mL (≈ 0.0182 µM)
- MIC ([3]; strain 7771, LEV^R RIF^S): 0.008 µg/mL (≈ 0.00972 µM)
- MIC ([3]; strain 7772, LEV^S RIF^S): 0.015 µg/mL (≈ 0.0182 µM)
- MIC ([3]; strain 7773, LEV^R RIF^S): 0.015 µg/mL (≈ 0.0182 µM)
- MIC ([3]; strain 7774, LEV^R RIF^S): 0.015 µg/mL (≈ 0.0182 µM)
- MIC ([3]; strain 7775, LEV^R): 0.015 µg/mL (≈ 0.0182 µM)
- MIC [4]: 0.015 µg/mL (≈ 0.0182 µM)
